Data from patent US8461185B2, “P2X3 receptor antagonists for treatment of pain” (Merck Sharp & Dohme Corp., priority 2007, dated 2013).

Each molecule was assayed against T1, human P2X3 (Homo sapiens, UniProt P56373) (assay: Intracellular Calcium Measurement to Assess Antagonist Affinity (FLIPR, Fluo-4, agonist α,β-meATP)). Settings: Intracellular Calcium Measurement to Assess Antagonist Affinity assay; [α,β-meATP]final=EC50.
T1 construct: expressed in transfected cells
T1 sequence (P56373 1-397): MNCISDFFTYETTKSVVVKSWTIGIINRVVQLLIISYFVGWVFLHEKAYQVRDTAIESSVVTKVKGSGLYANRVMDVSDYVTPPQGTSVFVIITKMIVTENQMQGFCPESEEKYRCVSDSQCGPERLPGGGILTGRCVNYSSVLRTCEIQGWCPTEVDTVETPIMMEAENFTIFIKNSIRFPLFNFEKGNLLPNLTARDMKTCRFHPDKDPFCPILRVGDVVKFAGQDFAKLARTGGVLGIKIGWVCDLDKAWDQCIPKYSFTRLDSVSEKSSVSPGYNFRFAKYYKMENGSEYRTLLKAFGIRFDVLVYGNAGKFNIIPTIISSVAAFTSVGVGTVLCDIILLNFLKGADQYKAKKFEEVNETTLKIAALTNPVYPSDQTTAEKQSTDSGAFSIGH
Assay type: cell-based
From the text: Generation of a Human P2X3 and P2X2/3 Stable Cell Line—Human P2X3 receptor cDNA (Accession number NM_002559) was subcloned as a 5′XhoI and 3′HindIII fragment into the expression vector pcDNA5/FRT (Invitrogen). Human P2X2 receptor cDNA (Accession number NM_174873) was subcloned as a 5′EcoRI and 3′NotI fragment into the expression vector pIRESneo2 (BD Biosciences Clontech). The human P2X3 expression construct was transfected using Lipofectamine 2000 (Invitrogen) into Flp-in—293 cells (Invitrogen) according to the manufacturer's directions. Cells positive for flp-mediated recombination of […] P2X3 were selected using 150 μg/ml hygromycin. The stable human P2X3 cell line was co-transfected with the human P2X2 expression construct using Lipofectamine 2000 as above and co-transfected cells selected using […] hygromycin and 1 mg/ml G418. The stable P2X3 cell line was propagated in DMEM, 10% FBS, 100 μg/ml hygromycin, and 100 units/ml penicillin and 100 μg/ml streptomycin, and maintained at 37° and 95% humidity. The stable P2X2/3 cell line was propagated as above with the addition of 500 μg/ml G418.
Intracellular Calcium Measurement to Assess Antagonist Affinity—A fluorescent imaging plate reader (FLIPR; Molecular Devices) was used to monitor intracellular calcium levels using the calcium-chelating dye Fluo-4 (Molecular Probes). The excitation and emission wavelengths used to monitor fluorescence were 488 nm and 530 nm, respectively. Cells expressing either human P2X3 or human P2X2/3 were plated at a density of 20,000 cells/well (20 μl/well) in 384-well black-walled plates approximately 20 hours before beginning the assay. On the day of the assay 20 μl of loading buffer (Hank's balanced salt solution, 2.5 mM CaCl2, 20 mM HEPES, 0.1% BSA, 2.5 mM probenecid, TR-40, Fluo-4, and 138 mM NMDG substituted for NaCl) is added and cells dye-loaded for […] in the dark at room temperature. Ten minutes prior to adding agonist, the antagonist was added in a volume of 10 μl and allowed to incubate at room temperature. During this period fluorescence data is collected at 3 sec intervals followed by 10 sec intervals. The agonist, α,β-meATP, is added at a 6× concentration ([α,β-meATP]final=EC50). Following agonist addition fluorescence was measured at 5 sec intervals and analyzed based on the increase in peak relative fluorescence units (RFU) compared to the basal fluorescence. Peak fluorescence was used to determine the inhibitory effect at each concentration of antagonist by the following equation: % Inhibition=100*(1−((RFU(drug)−RFU(control))/(RFU(DMSO only)−RFU(control))))

First: C[C@@H](NC(=O)c1cc(C2=NO[C@H](c3ccccn3)C2)cc(-c2ccc(Cl)cn2)c1)c1ccc(F)cn1 [3-(5-chloropyridin-2-yl)-N-[(1R)-1-(5-fluoropyridin-2-yl)ethyl]-5-[(5S)-5-pyridin-2-yl-4,5-dihydroisoxazol-3-yl]benzamide]
Second: Cc1ccc(-c2cc(C(=O)N[C@H](C)c3ccc(F)cn3)cc(C3=NO[C@H](c4ccccn4)C3)c2)nc1 [N-[(1R)-1-(5-fluoropyridin-2-yl)ethyl]-3-(5-methylpyridin-2-yl)-5-[(5S)-5-pyridin-2-yl-4,5-dihydroisoxazol-3-yl]benzamide]
The IC50 of the first is 5.5-fold higher: 110 nM for the first, 20 nM for the second. The second is the more potent here.

First: Cc1ccc(-c2cc(C(=O)N[C@H](C)c3ccc(C(F)(F)F)nc3)cc(C3=NO[C@H](c4ccccn4)C3)c2)nc1 [3-(5-methylpyridin-2-yl)-5-[(5S)-5-pyridin-2-yl-4,5-dihydroisoxazol-3-yl]-N-{(1R)-1-[6-(trifluoromethyl)pyridin-3-yl]ethyl}benzamide]
Second: Cc1ccc(-c2cc(C(=O)N[C@H](C)c3ncc(F)cc3F)cc(C3=NOC4(CCC4)C3)c2)nc1 [N-[(1R)-1-(3,5-difluoropyridin-2-yl)ethyl]-3-(5-methylpyridin-2-yl)-5-(5-oxa-6-azaspiro[3.4]oct-6-en-7-yl)benzamide]
The IC50 of the first is 5.8-fold lower: 10 nM for the first, 58 nM for the second.
